In patent publication US20050059610A1 (priority 2003, published 2005):
Where a SMILES comes first, the peptide text is derived from it.

What was measured:
sepsis (CLP) = assay: CLP with or without quercetin (HSP 70 inhibitor): survival, lung HSP/NOS, metabolism, TNF; type: in vivo, Sprague-Dawley rats; conditions: quercetin 400 mg/kg IP 6 hours pre-CLP
Description: Methods: Male Sprague-Dawley rats were divided into 5 groups. Two groups were treated with 400 mg/kg of quercetin (Q) IP (HSP 70 inhibitor) 6 hours pre-CLP. […] The final group (CONT, n=6) received no treatment. Five-day survival was monitored. In separate studies, lung was harvested 24-hours post-CLP and tissue metabolism analyzed by 31P- and 1H-MRS. A final study analyzed blood for TNF- at 6 hours post-CLP and lung tissue 6 hours post-CLP for HSP-70, iNOS, eNOS, and activated heat shock factor-1 (HSF-1).

[1] = system: polymicrobial sepsis and peritonitis (CLP); assay: CLP peritonitis/polymicrobial sepsis, GLN 30 minutes after induction, with or without quercetin; type: in vivo, rat; conditions: quercetin with GLN
Text: Cecal ligation and puncture (CLP) in the rat was chosen as the appropriate model.

[2] = system: polymicrobial sepsis (2CLP); assay: Cecal-ligation and double-puncture (2CLP) sepsis: survival, cytokines, lung HSP 72; type: in vivo, Sprague-Dawley rats
Text: Further, increased Interleukin-18 (IL-18) levels appear to play a critical role in cytokine-induced organ failure and can be predictive of mortality in sepsis patients.
Increased Interleukin-18 (IL-18) levels appear to play a critical role in cytokine-induced organ failure and can be predictive of mortality in sepsis patients.

[3] = system: polymicrobial sepsis (CLP); assay: Cecal ligation and puncture (CLP): lung and heart tissue metabolism by MRS, survival; type: in vivo, Sprague-Dawley rats; conditions: single large dose following onset of sepsis, CLP rat
Description: Survival was monitored for five days. In a separate group of animals (n=4/group), lung and heart tissue was harvested 24 hours post-CLP and tissue metabolism was analyzed by ^1H-MRS and ^31P-MRS.

[4] = system: myocardial ischemia/reperfusion injury; conditions: single dose 18 hours prior to myocardial injury, rat
congestive heart failure = conditions: 4 weeks of supplementation (Azuma et al 1983); cited from earlier work

## O=c1c(O)c(-c2ccc(O)c(O)c2)oc2cc(O)cc(O)c12 [Q, quercetin, reference compound]
Sepsis (CLP)
  effect on TNF- or NOS expression: No Q effect
Sepsis (CLP); with GLN
  HSF-1 activation and subsequent HSP70 expression: Inhibition
  effect on GLN's improvements in lung tissue metabolic dysfunction: blocked
  effect on GLN's survival benefit: abrogated
[1]
  effect on GLN attenuation of tissue metabolic dysfunction: inhibited
  effect on GLN improvement of survival: inhibited
  effect on GLN-enhanced HSP 70 expression and HSF-1 activation: blocked

## C[C@H](N)C(=O)N[C@@H](CCC(N)=O)C(=O)O [alanyl-glutamine] (H-Ala-Gln-OH)
[2]; following 2CLP
  lung HSP 72 expression versus control: restore normal heat shock protein expression
[2]; single large dose following onset of sepsis, CLP rat
  inflammatory cytokine release: attenuate
[3]
  cellular metabolism in the lung: improve
[4]
  myocardial function following ischemia and reperfusion injury: improve myocardial function

## NCCS(=O)(=O)O [taurine]
Congestive heart failure
  dyspnea, palpitation, crackles, edema, and New York Heart Association functional class: highly significant improvement
